Laboratory results published in ChEMBL document CHEMBL4665689, “Picrorhizones A-H, Polyprenylated Benzoylphloroglucinols from the Stem Bark of Garcinia picrorhiza” (J Nat Prod, 2020).
pIC50: −log10 of the molar value.

Experiments:
Format in all cases: functional, cell-based
[1] = system: MCF7; assay: Cytotoxicity activity against human MCF7 cells assessed as reduction in cell viability after 72 hrs by MTT assay; conditions: MCF7, 72 h
[2] = system: HepG2; assay: Cytotoxicity activity against human HepG2 cells assessed as reduction in cell viability after 72 hrs by MTT assay; conditions: HepG2, 72 h
[3] = system: HT-29; assay: Cytotoxicity activity against human HT-29 cells assessed as reduction in cell viability after 72 hrs by MTT assay; conditions: HT-29, 72 h
[4] = system: KB; assay: Cytotoxicity activity against human KB cells assessed as reduction in cell viability after 72 hrs by MTT assay
[5] = system: HeLa S3; assay: Cytotoxicity activity against human HeLa S3 cells assessed as reduction in cell viability after 72 hrs by MTT assay; conditions: HeLa S3, 72 h

CC(C)=CC[C@@H]1C[C@]23C[C@@H](CC=C(C)C)C(C)(C)[C@](CC=C(C)C)(C(=O)C(C(=O)c4ccc(O)c(O)c4)=C2OC1(C)C)C3=O showed a pIC50 [1] of 5.14, a pIC50 [2] of under 5.00 and a pIC50 [3] of under 5.00. For the same compound, the pIC50 [4] was 5.28 and the pIC50 [5] was under 5.00.
C=C(C)[C@H]1C[C@@H](C[C@@]23C[C@@H](/C=C/C(C)C)C(C)(C)[C@@](CC=C(C)C)(C2=O)c2oc4cc(O)c(O)cc4c(=O)c2C3=O)C1(C)C was tested, and the pIC50 [1] was under 5.00, the pIC50 [2] was under 5.00 and the pIC50 [3] was under 5.00. It also gave a pIC50 [4] of 5.28 and a pIC50 [5] of 5.21.
For C=C(C)[C@H]1C[C@@H](C[C@]23C[C@@H](/C=C/C(C)C)C(C)(C)[C@](C/C=C(\C)CO)(C(=O)C(C(=O)c4ccc(O)c(O)c4)=C2O)C3=O)C1(C)C, the pIC50 [4] was under 5.00 and the pIC50 [5] was 5.10.
C=C(C)[C@H]1C[C@@H](C[C@]23C[C@@H](/C=C/C(C)C)C(C)(C)[C@](CC=C(C)C)(C(=O)C(C(=O)c4ccc(O)c(O)c4)=C2O)C3=O)C1(C)C was tested, and the pIC50 [1] was under 5.00, the pIC50 [2] was under 5.00 and the pIC50 [3] was under 5.00. The pIC50 [4] was 5.15 and the pIC50 [5] was 5.14.
Compound CC(=O)[C@H]1C[C@@H](C[C@]23C[C@@H](/C=C/C(C)C)C(C)(C)[C@](CC=C(C)C)(C(=O)C(C(=O)c4ccc(O)c(O)c4)=C2O)C3=O)C1(C)C has a pIC50 [1] of under 5.00, a pIC50 [2] of under 5.00 and a pIC50 [3] of under 5.00. It also gave a pIC50 [4] of 5.13 and a pIC50 [5] of under 5.00.
C=C(C)[C@H]1C[C@@H](C[C@]23C[C@@H](/C=C/C(C)C)C(C)(C)[C@@]4(C[C@@H](C(C)(C)O)OC4=C(C(=O)c4ccc(O)c(O)c4)C2=O)C3=O)C1(C)C showed a pIC50 [1] of 5.03, a pIC50 [2] of 5.03 and a pIC50 [3] of under 5.00. It also gave a pIC50 [4] of 5.23 and a pIC50 [5] of 5.22.
In the case of C=C(C)[C@H]1C[C@@H](C[C@]23C[C@@H](/C=C/C(C)C)C(C)(C)[C@](CC=C(C)C)(C(=O)C(C(=O)c4ccccc4)=C2O)C3=O)C1(C)C, the pIC50 [1] was under 5.00, the pIC50 [2] was under 5.00 and the pIC50 [3] was under 5.00. For the same compound, the pIC50 [4] was 5.00 and the pIC50 [5] was under 5.00.
For COc1cccc2c1C(=O)c1c(O)c3c(c(O)c1C2=O)C[C@@](O)(C(=O)CO)C[C@@H]3O[C@H]1C[C@H](N)[C@H](O)[C@H](C)O1 [DOXORUBICIN], the pIC50 [2] was 6.00, the pIC50 [3] was 6.23 and the pIC50 [4] was 7.70. The pIC50 [5] was 6.82.
